The results in this text go back to patent US20220304911A1, “ORAL CARE PRODUCT WITH CANNABINOID COMPOUNDS” (Demetrix, Inc., priority 2021, published 2022).

Converted amounts (≈) assume the structure as drawn. Like-named read-outs stand apart in the source and are kept apart here.

The experiment relates to Streptococcus mutans (S. mutans). Put plainly: minimum inhibitory concentration (MIC) assay against S. mutans. Type of experiment: cell-based. As to the method:
As used herein “minimum inhibitory concentration” or “MIC” refers to the lowest concentration (in μg/mL) of an antibiotic that inhibits the growth of a given strain of bacteria.
To determine the ability of the cannabinoid compounds described herein to reduce, or eliminate, S. mutans, a minimum inhibitory concentration (“MIC”) assay was performed. The assay was performed by Charles River Discovery Research Services UK Limited (Portishead, United Kingdom) in accordance with industry standards.

Where [1] appears, read: Streptococcus mutans, read-out: minimum inhibitory concentration (MIC) against S. mutans.
Where [2] appears, read: S. mutans, assay performed by Charles River Discovery Research Services UK Limited.

As for `CCCCCc1cc(O)c2c(c1)OC(C)(CCC=C(C)C)C=C2` (stereo not shown) [CBC, cannabichromene], the MIC (Streptococcus mutans) was found to be 25 µg/mL (≈ 79.5 µM) and the MIC under setting [1] was under 25 µg/mL. Regarding `CCCCCc1cc2c(c(O)c1C(=O)O)C=CC(C)(CCC=C(C)C)O2` (stereo not shown) [CBCA, cannabichromenic acid], under setting [2], the “MIC” value is over 200 µg/mL. On to `C=C(C)[C@@H]1CCC(C)=C[C@H]1c1c(O)cc(CCCCC)cc1O` [CBD, cannabidiol], for which the MIC runs as follows: (Streptococcus mutans, S. mutans, assay performed by Charles River Discovery Research Services UK Limited, read-out: MIC) 25 µg/mL (≈ 79.5 µM); (Streptococcus mutans, S. mutans, summary statement in the description, read-out: minimum inhibitory concentration (MIC) against S. mutans) under 25 µg/mL. On to `C=C(C)[C@@H]1CCC(C)=C[C@H]1c1c(O)cc(C)cc1O` [CBD-C1], for which, under setting [2], the “MIC” value was found to be 100 µg/mL (≈ 387 µM). Still for that read-out and setting: the value for `C=C(C)[C@@H]1CCC(C)=C[C@H]1c1c(O)cc(CC)cc1O` [CBD-C2, cannabidiol ethyl] was 25 µg/mL (≈ 91.8 µM). With `C=C(C)[C@@H]1CCC(C)=C[C@H]1c1c(O)cc(CCCC)cc1O` [CBD-C4, cannabidibutol], under setting [2], the “MIC” value was determined as 25 µg/mL (≈ 83.2 µM). As for `C=C(C)[C@@H]1CCC(C)=C[C@H]1c1c(O)cc(CCCCC)c(C(=O)O)c1O` [CBDA, cannabidiolic acid], the MIC was 25 µg/mL (≈ 69.7 µM) (Streptococcus mutans) and under 25 µg/mL under setting [1]. Turning to `C=C(C)[C@@H]1CCC(C)=C[C@H]1c1c(O)cc(CCC)cc1O` [CBDV, cannabidivarin], the MIC (Streptococcus mutans) was 25 µg/mL (≈ 87.3 µM) and the MIC under setting [1] was under 25 µg/mL. For the compound `C=C(C)[C@@H]1CCC(C)=C[C@H]1c1c(O)cc(CCC)c(C(=O)O)c1O` [CBDVA, cannabidivarinic acid], the “MIC” value under setting [2] was found to be 25 µg/mL (≈ 75.7 µM). As for `CCCCCc1cc(O)c(C/C=C(\C)CCC=C(C)C)c(O)c1` [CBG, cannabigerol], the MIC is, setting by setting: (Streptococcus mutans) 25 µg/mL (≈ 79 µM); under setting [1], under 25 µg/mL. As to `CCCCc1cc(O)c(CC=C(C)CCC=C(C)C)c(O)c1` [CBG-C4, cannabigerol butyl], the “MIC” value under setting [2] was 25 µg/mL (≈ 82.7 µM). With `CCCCCc1cc(O)c(C/C=C(\C)CCC=C(C)C)c(O)c1C(=O)O` [CBGA, cannabigerolic acid], the MIC runs as follows: (Streptococcus mutans) 25 µg/mL (≈ 69.3 µM); under setting [1], under 25 µg/mL. As for `CCCCc1cc(O)c(C/C=C(\C)CCC=C(C)C)c(O)c1C(=O)O` [CBGA-C4, cannabigerolic acid butyl], the “MIC” value under setting [2] was found to be 12.5 µg/mL (≈ 36.1 µM). On the same count and under the same terms, the value for `CCCc1cc(O)c(C/C=C(\C)CCC=C(C)C)c(O)c1` [CBGV, cannabigerovarin] was 25 µg/mL (≈ 86.7 µM); that for `CCCc1cc(O)c(C/C=C(\C)CCC=C(C)C)c(O)c1C(=O)O` [CBGVA, cannabigerovarinic acid] was over 200 µg/mL. Consider `CCCCCc1cc(O)c2c(c1)OC1(C)CCC3C1C2C3(C)C` (stereo not shown) [CBL, cannabicyclol], for which the MIC is, setting by setting: (Streptococcus mutans) over 200 µg/mL; under setting [1], over 25 µg/mL.

On to `CCCCCc1cc2c(c(O)c1C(=O)O)C1C3C(CCC3(C)O2)C1(C)C` (stereo not shown) [CBLA, cannabicyclolic acid], for which, under setting [2], the “MIC” value is over 200 µg/mL. As for `CCCCCc1cc(O)c2c(c1)OC(C)(C)c1ccc(C)cc1-2` [CBN, cannabinol], the MIC reads like this: (Streptococcus mutans) 50 µg/mL (≈ 161 µM); under setting [1], over 25 µg/mL.

Consider `CCCCCc1cc2c(c(O)c1C(=O)O)-c1cc(C)ccc1C(C)(C)O2` [CBNA, cannabinolic acid], for which the “MIC” value under setting [2] was over 200 µg/mL.

For (+)-cannabidiol [(+)-CBD], the “MIC” value under setting [2] stood at 25 µg/mL.
